From patent publication US20150344466A1 (SUMITOMO CHEMICAL COMPANY, LIMITED, priority 2013, published 2015)

What was measured:
Type in all cases: in vivo
Culex pipiens pallens [1] = assay: Larvicidal test on Culex pipiens pallens, eight days (Test Example 7); settings: 192 h; last-instar larvae of Culex pipiens pallens; 3.5 ppm in water; eight days later; read-out: death rate
Experimental: (§1) 20 last-instar larvae of Culex pipiens pallens were released into a liquid to which 0.7 ml of the above test drug solution was added to 100 ml of ion-exchanged water (a concentration of the active ingredient of 3.5 ppm). Eight days later, the life and death of the Culex pipiens pallens was examined, and the death rate was calculated. The death rate was calculated by the following equation.
(§2) Death rate (%)=(Number of dead insects/Number of tested insects)×100

Plutella xylostella = assay: Foliar spray test on Plutella xylostella on cabbage (Test Example 10); settings: 120 h, third instar larvae of Plutella xylostella on cabbage, 500 ppm spray 20 ml/cup, after five days, read-out: controlling value
In short: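 Cabbage at the third–fourth true-leaf stage sprayed with test solution at 20 ml/cup, dried, then infested with 10 third-instar larvae. Insects counted after five days; controlling value (%) calculated from treated and non-treated counts before treatment and at observation.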

Culex pipiens pallens [2] = assay: Larvicidal test on Culex pipiens pallens, one day (Test Example 6); settings: 24 h; last-instar larvae of Culex pipiens pallens; 3.5 ppm in water; one day later; read-out: death rate
Experimental: Each of the formulations of Compounds of Present Invention (39), (63), (71), (72), (92), (93), (95), (106), (150), (171), (170), (181), (182), (183), (187), (188), (189), (190), (191), (192), (200), (201), (201), (234), (246), (290) and (299) obtained in Formulation Example 15 was diluted with water, so as to have a concentration of the active ingredient of 500 ppm, to prepare a test drug solution.
as §1, with “One day” for “Eight days”
as §2

Culex pipiens pallens [3] = assay: Knockdown spray test on adult Culex pipiens pallens (Test Example 4); settings: topical, 0.25 h, active ingredient 0.1% w/v, 0.5 ml sprayed, within 15 minutes, read-out: knockdown rate of the test insects within 15 minutes
In short: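 Knockdown counts were taken 2, 5 and 15 min after spraying and expressed as percent of the 10 adults tested. For the spray, 0.5 ml of solution was applied by spray gun (0.4 kg/cm^2) from 30 cm above a gauze-covered cup in a test chamber; the cup was taken out right after spraying.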

Blattella germanica [4] = assay: Knockdown spray test on Blattella germanica, 0.1% w/v oil formulation (Test Example 2); settings: topical, 0.25 h, active ingredient 0.1% w/v, 1.5 ml sprayed, within 15 minutes, read-out: knockdown rate of the test insects within 15 minutes
In short: (§3)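 Ten German cockroaches (5 males, 5 females) in a mesh-bottomed, butter-walled container were sprayed with 1.5 ml test solution from 60 cm at 0.42 kg/cm^2 inside a chamber.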

Aphis gossypii = assay: Soil treatment test on Aphis gossypii on cucumber (Test Example 9); settings: 168 h, 5 ml treatment solution in contact with soil, seven days after putting insects, read-out: controlling value
Experimental: On the other hand, cucumber was planted in a polyethylene cup with a plurality of small holes on the bottom and grown until the first true leaf was spread. A cup in which cucumber was planted was put in a plastic cup with 5 ml of the test treatment solution, so that the soil in the cup was in contact with the treatment liquid. After five days, about 20Aphis gossypii were allowed to parasitize the cucumber, and seven days after putting insects, the number of Aphis gossypii was investigated, and the controlling value was calculated according to the following equation. Controlling value (%)={1−(Cb×Tai)/([…])}×100 In the equation, the symbols represent as follows. Cb: the number of insects in a non-treated section before treatment Cai: the number of insects in a non-treated section on observation Tb: the number of insects in a treated section before treatment Tai: the number of insects in a treated section on observation

Spodoptera litura = assay: Foliar spray test on Spodoptera litura on cabbage (Test Example 11); settings: 96 h, fourth instar larvae of Spodoptera litura on cabbage, 500 ppm spray 20 ml/cup, after 4 days, read-out: controlling value
Experimental: On the other hand, cabbage was planted in a polyethylene cup, and grown until the third-fourth true leaf was spread. The test spray solution was sprayed to the cabbage at a ratio of 20 ml/cup. After the drug solution sprayed orn the cabbage was dried, 10 fourth instar larvae of Spodoptera litura were allowed to parasitize the cabbage. After 4 days, the number of surviving Spodoptera litura on the cabbage leaves was examined, and the controlling value was calculated according to the following equation. Controlling value (%)={1−(Cb×Tai)/([…])}×100 In the equation, the symbols represent as follows. Cb: the number of insects in a non-treated section before treatment Cai: the number of insects in a non-treated section on observation Tb: the number of insects in a treated section before treatment Tai: the number of insects in a treated section on observation

Musca domestica [5] = assay: Filter paper/sucrose bait death rate test on Musca domestica (Test Example 5); settings: female imagoes of Musca domestica, 0.7 ml on filter paper, after 24 hours
In short: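 Ten female imagoes were confined in a sealed cup over a filter paper treated with 0.7 ml of test solution and 30 mg sucrose bait. Mortality was scored at 24 h and expressed as percent of tested insects killed.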

Musca domestica [6] = assay: Knockdown spray test on adult Musca domestica (Test Example 3); settings: topical, 0.25 h, active ingredient 2.0% w/v, 0.5 ml sprayed, within 15 minutes, read-out: knockdown rate of the test insects within 15 minutes
In short: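 Ten adult house flies (5 male, 5 female) in a gauze-covered cup sprayed with 0.5 ml test solution from 30 cm at 0.9 kg/cm^2 inside a chamber, then removed. Knocked-down flies counted at 2, 5 and 15 min and expressed as % of insects tested.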

Blattella germanica [7] = assay: Knockdown spray test on Blattella germanica, 2.0% w/v oil formulation (Test Example 1); settings: topical, 0.25 h, active ingredient 2.0% w/v, 1.5 ml sprayed, within 15 minutes, read-out: knockdown rate of the test insects within 15 minutes
In short: as §3

Compound | pest or weed control at 3.5 ppm (Culex pipiens pallens [1]) | pest or weed control at 500 ppm (Plutella xylostella) | pest or weed control at 3.5 ppm (Culex pipiens pallens [2]) | pest or weed control at 0.1 % strength (Culex pipiens pallens [3]) | pest or weed control at 0.1 % strength (Blattella germanica [4]) | pest or weed control at 500 ppm (Aphis gossypii) | pest or weed control at 500 ppm (Spodoptera litura) | pest or weed control at 500 ppm (Musca domestica [5]) | pest or weed control at 2 % strength (Musca domestica [6]) | pest or weed control at 2 % strength (Blattella germanica [7])
O=C(NCC1CCOC1)c1cc(COCc2ccc(OC(F)(F)F)cc2)on1 (stereo not drawn) [(93), N-(tetrahydrofuran-3-ylmethyl)-5-(4-trifluoromethoxybenzyloxymethyl)isoxazole-3-carboxamide] | ≥ 90% | ≥ 90% | ≥ 90% | ≥ 80% | ≥ 80% |  |  |  |  | 
O=C(NCC1CCOC1)c1cc(CCCCCO)on1 (stereo not drawn) [(142), N-(tetrahydrofuran-3-ylmethyl)-5-(5-hydroxypentyl)isoxazole-3-carboxamide] |  |  |  |  |  | ≥ 90% |  |  |  | 
O=C(NCC1CCOC1)c1cc(COc2ccc(OC(F)(F)F)cc2)on1 (stereo not drawn) [(190), N-(tetrahydrofuran-3-ylmethyl)-5-(4-trifluoromethoxyphenoxymethyl)isoxazole-3-carboxamide] | ≥ 90% | ≥ 90% | ≥ 90% | ≥ 80% | ≥ 80% |  | ≥ 80% |  |  | 
O=C(NCC1CCOCC1)c1cc(COc2ccc(OC(F)(F)F)cc2)on1 [(191), N-(tetrahydropyran-4-ylmethyl)-5-(4-trifluoromethoxyphenoxymethyl)isoxazole-3-carboxamide] | ≥ 90% | ≥ 90% | ≥ 90% | ≥ 80% |  |  | ≥ 80% |  |  | 
O=C(NCC1CCOC1)c1cc(COc2cccc(F)c2)on1 (stereo not drawn) [(194), N-(tetrahydrofuran-3-ylmethyl)-5-(3-fluorophenoxymethyl)isoxazole-3-carboxamide] |  |  |  | ≥ 80% | ≥ 80% | ≥ 90% |  |  |  | 
O=C(NCC1CCOC1)c1cc(COc2cccc(OC(F)(F)F)c2)on1 (stereo not drawn) [(200), N-(tetrahydrofuran-3-ylmethyl)-5-(3-trifluoromethoxyphenoxymethyl)isoxazole-3-carboxamide] | ≥ 90% |  | ≥ 90% | ≥ 80% | ≥ 80% |  | ≥ 80% | ≥ 90% |  | 
O=C(NCC1CCOCC1)c1cc(COc2cccc(OC(F)(F)F)c2)on1 [(201), N-(tetrahydropyran-4-ylmethyl)-5-(3-trifluoromethoxyphenoxymethyl)isoxazole-3-carboxamide] | ≥ 90% | ≥ 90% | ≥ 90% | ≥ 80% |  |  | ≥ 80% |  |  | 
O=C(NCC1CCOC1)c1cc(COc2ccc3c(c2)OCO3)on1 (stereo not drawn) [(204), N-(tetrahydrofuran-3-ylmethyl)-5-(5-(1,3-benzodioxolanyl)oxymethyl)isoxazole-3-carboxamide] |  |  |  | ≥ 80% | ≥ 80% | ≥ 90% |  |  |  | 
O=C(NCC1CCOC1)c1cc(CCCc2ccc(Cl)c(Cl)c2)on1 (stereo not drawn) [(246), N-(tetrahydrofuran-3-ylmethyl)-5-[3-(3,4-dichlorophenyl)propyl]isoxazole-3-carboxamide] |  | ≥ 90% | ≥ 90% | ≥ 80% | ≥ 80% |  | ≥ 80% | ≥ 90% |  | 
Cc1c(C(=O)NCC2CCOC2)noc1CCCc1ccc2ccccc2c1 (stereo not drawn) [(290), N-(tetrahydrofuran-3-ylmethyl)-4-methyl-5-[3-(2-naphthyl)propyl]isoxazole-3-carboxamide] |  | ≥ 90% | ≥ 90% | ≥ 80% | ≥ 80% |  | ≥ 80% | ≥ 90% | ≥ 80% | ≥ 80%
